Results: patent publication US4339379A, “N-Acrylcarnosine aluminum salts” (Nippon Chemiphar Co., Ltd., priority 1979, dated 1982)
Several values for one entry are separate records, joined by “and”; a condition that tells them apart may be missing. Equal values may be shown once.

Legend:
Shay's ulcer = Shay's ulcer (pylorus ligation) in rats; type: in vivo, male Donryu strain rats; settings: for Ulcer index: total ulcerated area in forestomach
Protocol: Shay's ulcer: Groups of ten male Donryu strain rats each weighing 210 to 230 g were deprived of food for 48 hours. The pylorus of each rat was ligated according to the method of Shay et al [Gastroenterology, 5, 43-61 (1945)]. Each of the animals was allowed to stand abstained from food and water for further 14 hours and then sacrificed to remove its stomach. After collection of the gastric juice, the ulcerated area (mm^2) in the forestomach of each rat was measured under a dissecting microscope (10×). The total area (mm^2) of all the lesions of each rat was indicated as an ulcer index. Test medicine samples were given orally immediately after the pylorus ligation.

[1] = system: Indomethacin-induced ulcer; assay: Indomethacin-induced ulcer in rats; type: in vivo, male Donryu strain rats; settings: for Ulcer index: Indomethacin (25 mg/kg s.c.)-induced ulcer, 300 mg/kg P.O. ten minutes before pylorus ligation, total length of lesions
Protocol: Indomethacin-induced ulcer: Groups of ten male Donryu strain rats each weighing 200 to 215 g were deprived of food for 24 hours. Then, the pylorus was ligated under ether anethesia, after which indomethacin was administered subcutaneously in an amount of 25 mg/kg to each rat. Seven hours after the administration, each of the animals was sacrificed under ether anethesia to remove its stomach, followed by immersion in a 1% formalin solution for ten minutes. The stomach which had been semi-fixed was incised along its greater curvature, and the length (mm) of each lesion formed in the mucous membrane was measured under a dissecting microscope (10×). The total length (mm) of all the lesions of each rat was indicated as an ulcer index. Test medicine samples were given orally ten minutes before the pylorus legation.

[2] = rats, 1,000 mg/kg P.O. immediately after pylorus ligation
[3] = Indomethacin-induced ulcer, 300 mg/kg P.O.

| Molecule | % Inhibition (Shay's ulcer; rats, 1,000 mg/kg P.O.) | Ulcer index (Shay's ulcer; [2]) | inhibition at 2000 mg/kg (Shay's ulcer; Rattus norvegicus, po, rats, 2,000 mg/kg P.O.) [%] | % Inhibition (Shay's ulcer; rats, 2,000 mg/kg P.O.) [%] | Ulcer index (Shay's ulcer; rats, 2,000 mg/kg P.O. immediately after pylorus ligation) | Ulcer index [1] [mm] | % Inhibition [1, 3] | inhibition at 300 mg/kg ([1]; Rattus norvegicus, po, Indomethacin-induced ulcer, 300 mg/kg P.O.) [%] |
| --- | --- | --- | --- | --- | --- | --- | --- | --- |
| N-propionyl-L-carnosine aluminum salt | 74.2% | 0.8 ± 0.8 mm^2 |  |  |  |  |  |  |
| CC(=O)N[C@@H](CCC(N)=O)C(=O)O.[Al] [N-Acetyl-L-glutamine aluminum, N-acetyl-L-glutamine aluminum] |  |  | 69 | 67.7 | 0.9 ± 0.7 mm^2 and 1.0 ± 0.6 mm^2 |  |  |  |
| NCCC(=O)N[C@@H](Cc1cnc[nH]1)C(=O)O [L-Carnosine, L-carnosine] |  |  |  |  |  | 17.1 ± 3.1 | ~ 0% |  |
| N-acetyl-DL-carnosine aluminum salt | 75.9% | 0.7 ± 0.8 mm^2 |  |  |  | 6.7 ± 3.0 | 60.1% |  |
| N-acetyl-L-carnosine aluminum salt [B] | 72.4% | 0.8 ± 0.6 mm^2 |  |  |  | 6.5 ± 2.5 | 61.3% |  |
| aluminum sucrose sulfate | 72.4% and 71.0% | 0.8 ± 0.6 mm^2 and 0.9 ± 0.5 mm^2 |  |  |  | 7.4 ± 2.8 | 56.0% |  |
| NC(=O)CC[C@H](N)C(=O)O [L-Glutamine, L-glutamine] |  |  |  |  |  | 9.7 ± 3.9 |  | 42.3 |
